From patent US20200009176A1, “TREATMENT OF LEUKEMIA VIA THE ADMINISTRATION OF DOT1L INHIBITOR PINOMETOSTAT” (Epizyme, Inc., priority 2014, published 2020)
“And” between values parts separate entries of the source, which are not always exact repeats. Identical values can stand only once. “Also recorded” adds a separate entry of the source. Like-named read-outs stand apart in the source and are kept apart here.

Key:
[1] = system: leukemia cell lines MOLM-13, OCI-AML4, and SKM-1; assay: Growth inhibition assays, pinometostat with RAS pathway inhibitors; assay type: cell-based; conditions: pinometostat 3 μM, 300 nM, 150 nM or 75 nM plus SCH772984, Trametinib or Sorafenib; FIG. 13
Method: Growth inhibition assays were performed using leukemia cell lines to determine whether there is any synergy between pinometostat and RAS pathway inhibitors. The leukemia cell lines used were MOLM-13, OCI-AML4, and SKM-1. For these studies, different RAS pathway inhibitors were used, including SCH772984 (e.g., an ERK inhibitor), Trametinib (e.g., a MEK inhibitor), and Sorafenib (e.g., a Raf kinase inhibitor).

DOT1L = DOT1L (Homo sapiens, UniProt Q8TEK3); assay: DOT1L affinity; assay type: binding
Chain of DOT1L (Q8TEK3 whole entry): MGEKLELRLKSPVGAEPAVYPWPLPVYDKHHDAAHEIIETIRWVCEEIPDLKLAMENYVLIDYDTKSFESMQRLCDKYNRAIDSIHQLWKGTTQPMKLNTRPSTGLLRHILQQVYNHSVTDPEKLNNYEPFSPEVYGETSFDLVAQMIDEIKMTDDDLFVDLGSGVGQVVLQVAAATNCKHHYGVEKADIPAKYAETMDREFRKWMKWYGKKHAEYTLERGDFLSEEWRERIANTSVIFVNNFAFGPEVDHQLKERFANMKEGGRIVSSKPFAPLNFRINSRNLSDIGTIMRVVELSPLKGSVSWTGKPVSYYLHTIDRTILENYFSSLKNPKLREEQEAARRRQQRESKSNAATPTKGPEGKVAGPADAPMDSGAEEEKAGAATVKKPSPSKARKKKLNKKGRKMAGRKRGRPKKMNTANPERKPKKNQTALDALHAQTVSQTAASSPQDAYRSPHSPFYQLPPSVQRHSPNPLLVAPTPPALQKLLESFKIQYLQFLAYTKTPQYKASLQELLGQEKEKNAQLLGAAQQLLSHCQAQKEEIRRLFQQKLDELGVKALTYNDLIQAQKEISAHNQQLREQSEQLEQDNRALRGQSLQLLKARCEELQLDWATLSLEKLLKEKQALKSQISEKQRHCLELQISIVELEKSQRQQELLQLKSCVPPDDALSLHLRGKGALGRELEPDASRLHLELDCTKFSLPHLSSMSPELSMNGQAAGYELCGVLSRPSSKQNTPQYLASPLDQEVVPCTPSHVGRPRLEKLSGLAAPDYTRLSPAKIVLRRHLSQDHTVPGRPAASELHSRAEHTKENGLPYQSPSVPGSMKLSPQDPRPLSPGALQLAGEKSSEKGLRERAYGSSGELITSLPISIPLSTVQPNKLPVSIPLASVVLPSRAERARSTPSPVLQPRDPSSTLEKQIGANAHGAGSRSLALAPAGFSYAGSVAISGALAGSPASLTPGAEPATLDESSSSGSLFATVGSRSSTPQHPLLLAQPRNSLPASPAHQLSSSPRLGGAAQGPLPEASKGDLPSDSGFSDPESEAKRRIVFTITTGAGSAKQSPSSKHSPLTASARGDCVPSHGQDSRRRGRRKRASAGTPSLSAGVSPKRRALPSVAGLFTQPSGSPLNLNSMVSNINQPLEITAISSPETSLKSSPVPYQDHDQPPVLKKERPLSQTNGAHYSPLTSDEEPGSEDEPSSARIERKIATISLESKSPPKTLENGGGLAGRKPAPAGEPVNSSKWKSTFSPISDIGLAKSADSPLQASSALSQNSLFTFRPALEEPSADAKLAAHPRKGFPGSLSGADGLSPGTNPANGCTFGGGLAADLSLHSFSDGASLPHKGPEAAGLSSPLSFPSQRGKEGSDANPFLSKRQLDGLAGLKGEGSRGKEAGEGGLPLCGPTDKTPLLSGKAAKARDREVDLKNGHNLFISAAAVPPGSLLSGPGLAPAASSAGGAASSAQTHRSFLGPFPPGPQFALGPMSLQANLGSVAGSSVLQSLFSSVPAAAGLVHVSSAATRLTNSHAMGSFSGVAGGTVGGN

MLL-rearranged cells = assay: Pre-clinical study with MLL-rearranged and non-MLL rearranged cells (FIG. 3); assay type: cell-based; conditions: MLL-rearranged vs non-MLL rearranged cells
[2] = Adult Phase 1 dose escalation/expansion study: safety and clinical response; assay type: in vivo, human; set-up: key to clinical response, per patient: ▪: Complete Responder (Patient Nos. 16 and 18); ▴: Biological Effect (Leukocytosis) (Patient Nos. 1, 7, 13, 15, and 17); ●: Non-responder (Patient Nos. 2-6, 8-12, and 14)
Source text: This open label dose escalation/expansion study of pinometostat enrolled patients ≥18 years (yrs) with R/R leukemia (NCT01684150). In the dose-escalation phase, patients with AML, ALL, mixed lineage leukemia (MLL), myelodysplastic syndrome, myeloproliferative neoplasm or chronic myeloid leukemia were eligible. […] Pinometostat was given via continuous intravenous infusion (CIV) for 21 of 28 day cycles in the dose escalation phase and CIV for 28 of 28 day cycles in the expansion phase, until disease progression or unacceptable toxicity. All patients underwent serial collection of PK and peripheral blood mononuclear cells (PBMC) for PD. […] As of Jun. 28, 2015, 49 patients have enrolled in the dose escalation and expansion phases. […] Correlations of transcript abundance and DNA variants detected with categorical (responder=CR or PR [n=3], or no response [n=15]) and continuous response parameters (time on study (“TOS”), mean=59 days: range=8-196 days) were performed.

[3] = system: H3K79-me2 at MLL-r target genes HOXA9 and MEIS1; assay: Adult Phase 1 study: H3K79-me2 ChIP-Seq in leukemic blasts; assay type: in vivo, human; conditions: 9 patients, 90 mg/m^2 expansion cohort
Method: (§1) This open label dose escalation/expansion study of pinometostat enrolled patients ≥18 years (yrs) with R/R leukemia (NCT01684150). In the dose-escalation phase, patients with AML, ALL, mixed lineage leukemia (MLL), myelodysplastic syndrome, myeloproliferative neoplasm or chronic myeloid leukemia were eligible. Eligibility in the two expansion cohorts: 90 mg/m^2 (n=17) and 54 mg/m^2 (n=6), was restricted to patients with MLL-r or MLL-partial tandem duplication (MLL-PTD). Pinometostat was given via continuous intravenous infusion (CIV) for 21 of 28 day cycles in the dose escalation phase and CIV for 28 of 28 day cycles in the expansion phase, until disease progression or unacceptable toxicity. All patients underwent serial collection of PK and peripheral blood mononuclear cells (PBMC) for PD. Leukemic blasts were isolated from PBMCs using flow cytometry and quantified for dimethylation of H3K79 (H3K79-me2) by ChIP-Seq.

[4] = Adult Phase 1 study: pharmacokinetics; assay type: in vivo, human; conditions: adults, CIV
Method: as §1

[5] = Pediatric Phase 1 study: safety; assay type: in vivo, human; conditions: children with R/R leukemia
Method: (§2) An open label dose escalation study of pinometostat was performed in patients (pts) aged 3 months to 18 […] leukemia (NCT02141828). Pinometostat was administered via continuous intravenous infusion until disease progression or unacceptable toxicity. Patients were assigned to one of two age-based dose escalation […] developed from simulations of pediatric exposures using a previously reported physiologically-based PK (PBPK) model (Waters, 2014). All patients underwent serial collection of PK and peripheral blood mononuclear cells (PBMC) for PD. Leukemic blasts were isolated from PBMCs using flow cytometry and quantified for di-methylation of H3K79 (H3K79-me2) by ChIP-Seq. As of Jun. 28, 2015, 11 patients have enrolled in the dose escalation of the study consisting of 10 patients (6 patients at 70 mg/m^2/day, 4 patients at 90 mg/m^2/day) in the older age cohort (1 to 18 yr) and 1 patient (45 mg/m^2/day) in the younger age cohort (<1 yr).

[6] = system: H3K79-me2 at MLL-r target genes HOXA9 and MEIS1; assay: Pediatric Phase 1 study: H3K79-me2 ChIP-Seq in leukemic blasts; assay type: in vivo, human; conditions: 2 of 2 pediatric patients analyzed
Method: as §2, with “ChIP-Seq.” for “ChIP-Seq. As of Jun. 28, 2015, 11 patients have enrolled in the dose escalation of the study consisting of 10 patients (6 patients at 70 mg/m^2/day, 4 patients at 90 mg/m^2/day) in the older age cohort (1 to 18 yr) and 1 patient (45 mg/m^2/day) in the younger age cohort (<1 yr).”

[7] = Pediatric Phase 1 study: pharmacokinetics; assay type: in vivo, human
Method: as §2, with “ChIP-Seq.” for “ChIP-Seq. As of Jun. 28, 2015, 11 patients have enrolled in the dose escalation of the study consisting of 10 patients (6 patients at 70 mg/m^2/day, 4 patients at 90 mg/m^2/day) in the older age cohort (1 to 18 yr) and 1 patient (45 mg/m^2/day) in the younger age cohort (<1 yr).”

[8] = system: 14 cell lines (MLL-r or MLL-PTD); assay: Cell proliferation in 14 cell lines; assay type: cell-based
Method: RNA and DNA were isolated from PBMCs and/or bone marrow collected prior to treatment from 18 patients enrolled in the adult pinometostat Phase 1 study (CT.gov: NCT01684150), at the following doses 24 (n=2), 36 (n=3), 54 (n=6), 80 (n=3) and 90 mg/m^2/day doses (n=4). mRNA transcript abundance was assessed using whole genome RNASeq and DNA variants were determined using a 194 gene panel, MyAML (Genection Inc.). Correlations of transcript abundance and DNA variants detected with categorical (responder=CR or PR [n=3], or no response [n=15]) and continuous response parameters (time on study (“TOS”), mean=59 days: range=8-196 days) were performed. For cell lines, whole genome RNASeq data was generated from 14 cell lines (MLL-r or MLL-PTD) with a range of in vitro sensitivity to pinometostat (cell proliferation IC50 2 nM to >10 μM) and RNA transcripts identified as correlated with IC5o were submitted for pathway analysis.

[9] = system: MLL-rearranged cells and xenografts; conditions: cited from earlier work
[10] = Stein 2014 ASH abstract 387; cited from earlier work
[11] = 18 adult patients of biomarker analysis
[12] = dose level 24 mg/m^2, listed as pinometostat
[13] = dose level 36 mg/m^2, listed as pinometostat
[14] = dose level 54 mg/m^2, listed as pinometostat
[15] = dose level 90 mg/m^2, listed as pinometostat

## O=C(Nc1ccc2[nH]nc(-c3ccncc3)c2c1)[C@@H]1CCN(CC(=O)N2CCN(c3ccc(-c4ncccn4)cc3)CC2)C1 [SCH772984, reference compound]
[1]
  effect on inhibition of cell growth, combination of RAS pathway inhibitor and pinometostat: synergistic effect

## CNC(=O)c1cc(Oc2ccc(NC(=O)Nc3ccc(Cl)c(C(F)(F)F)c3)cc2)ccn1 [Sorafenib, reference compound]
[1]
  effect on inhibition of cell growth, combination of RAS pathway inhibitor and pinometostat: synergistic effect

## CC(C)N(C[C@H]1O[C@@H](n2cnc3c(N)ncnc32)[C@H](O)[C@@H]1O)[C@H]1C[C@@H](CCc2nc3cc(C(C)(C)C)ccc3[nH]2)C1 [Compound A2, (2R,3R,4S,5R)-2-(6-amino-9H-purin-9-yl)-5-((((1r,3S)-3-(2-(5-(tert-butyl)-1H-benzo[d]imidazol-2yl)ethyl)cyclobutyl)(isopropyl)amino)methyl)tetrahydrofuran-3,4-diol]
DOT1L
  affinity for DOT1L: sub-nanomolar
MLL-rearranged cells
  killing of genetically defined cancer cells: selective killing
[2]; [11]
  time on study (TOS), mean: 59 days
  time on study (TOS), range: 8 to 196 days
[2]; CIV, adults with R/R leukemia
  safety profile: acceptable safety profile
[2]; FIG. 8, micrographs of blood and bone marrow
  differentiation effect in patients with MLL-r: leads to a differentiation effect
[2]; adult MLL-r and MLL-PTD, 90 mg/m^2/day uninterrupted, expansion stage
  drug-related treatment discontinuations: no drug-related treatment discontinuations
[2]; adults, 49 patients
  objective response: PR: 1 pt
  objective response: cytogenetic CR (MLL negative by FISH): 1 pt
  objective response: morphologic CR: 1 pt
  resolution of leukemia cutis: 3 pts
[2]; adults, absolute monocyte and neutrophil 50% above baseline and above upper limit of normal
  patients with leukocytosis or differentiation: Nine
[2]; [12]
  Time on Study, per patient: 49 days and 8 days
  clinical response, per patient: ● and ▴
[2]; [13]
  Time on Study, per patient: 33 days and 65 days and 21 days
  clinical response, per patient: ▴ (2×) and ●
[2]; [14]
  Time on Study, per patient: 49 days and 110 days and 196 days and 21 days
  clinical response, per patient: ● (2×) and ▪ (2×)
[2]; dose level 80 mg/m^2
  clinical response, per patient: ●
[2]; dose level 80 mg/m^2, listed as pinometostat
  Time on Study, per patient: 41 days and 82 days
[2]; [15]
  Time on Study, per patient: 31 days and 38 days and 50 days and 86 days and 136 days and 15 days and 28 days
  clinical response, per patient: ● (5×) and ▴ (2×)
[3]
  median inhibition of H3K79-me2 methylation at HOXA9 and MEIS1: 61%
  range of inhibition of H3K79-me2 methylation at HOXA9 and MEIS1: 13- 91%
[4]
  attainment of steady-state plasma concentrations (Css): Day 1
  dose proportionality of PK: Dose proportional PK
[5]
  safety profile: acceptable safety profile
[6]
  range of inhibition of H3K79-me2 methylation at HOXA9 and MEIS1: 44-72%
[7]; children
  Steady-state CSF concentrations: < 2 ng/mL
[7]; children ≥1 yr, 70 and 90 mg/m^2 doses
  Steady-state plasma concentrations (Css): 800 to 1600 ng/mL
[8]; least sensitive of 14 cell lines, read-out: cell proliferation IC50, upper end of range
  IC50: > 10000 nM
[8]; most sensitive of 14 cell lines, read-out: cell proliferation IC50, lower end of range
  IC50: 2 nM
[1]
  effect on inhibition of cell growth, combination of RAS pathway inhibitor and pinometostat: synergistic effect; also recorded: synergistic cell killing
[9]
  MLL target gene expression: decreased
  histone H3K79 methylation: reduced
[9]; listed as Pinometostat
  leukemia cell kill: induced selective leukemia cell kill
[9]; listed as pinometostat
  leukemia cell kill: selective leukemia cell kill
[10]
  clinical activity, preliminary results of the adult trial: complete remissions in a subset of patients
